In the supplement of paper PMC11451515:

Tested on: NOMO1
Assay: cell viability relative to DMSO control; higher = less cytotoxic
Conditions: 48 h
How it was run: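 Library compounds in DMSO were pin-dosed into 1536-well plates (5 μl) holding NOMO1 or SEM (500 cells/well) or P12-Ichikawa (1000 cells/well) leukemia cells, across an 11-point threefold series of 47 μM to 0.79 nM. Each cell line had been adapted for at least four passages in each medium. CellTiter-Glo One luminescence was read after 48 h at 37°C. Viability is the per-plate percentage relative to DMSO wells, with cell-free wells as background.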

[1] = HPLM + 10% dialyzed FBS, 0.000781 µM
[2] = HPLM + 10% dialyzed FBS, 0.00234 µM
[3] = HPLM + 10% dialyzed FBS, 0.00702 µM
[4] = HPLM + 10% dialyzed FBS, 0.0211 µM
[5] = HPLM + 10% dialyzed FBS, 0.0632 µM
[6] = HPLM + 10% dialyzed FBS, 0.19 µM
[7] = HPLM + 10% dialyzed FBS, 0.569 µM
[8] = HPLM + 10% dialyzed FBS, 1.71 µM
[9] = HPLM + 10% dialyzed FBS, 5.12 µM
[10] = HPLM + 10% dialyzed FBS, 15.4 µM
[11] = HPLM + 10% dialyzed FBS, 46.1 µM
[12] = RPMI 5 mM glucose + 10% FBS, 0.000781 µM
[13] = RPMI 5 mM glucose + 10% FBS, 0.00234 µM
[14] = RPMI 5 mM glucose + 10% FBS, 0.00702 µM
[15] = RPMI 5 mM glucose + 10% FBS, 0.0211 µM
[16] = RPMI 5 mM glucose + 10% FBS, 0.0632 µM
[17] = RPMI 5 mM glucose + 10% FBS, 0.19 µM
[18] = RPMI 5 mM glucose + 10% FBS, 0.569 µM
[19] = RPMI 5 mM glucose + 10% FBS, 1.71 µM
[20] = RPMI 5 mM glucose + 10% FBS, 5.12 µM
[21] = RPMI 5 mM glucose + 10% FBS, 15.4 µM
[22] = RPMI 5 mM glucose + 10% FBS, 46.1 µM
[23] = RPMI 5 mM glucose + 10% dialyzed FBS, 0.000781 µM
[24] = RPMI 5 mM glucose + 10% dialyzed FBS, 0.00234 µM
[25] = RPMI 5 mM glucose + 10% dialyzed FBS, 0.00702 µM
[26] = RPMI 5 mM glucose + 10% dialyzed FBS, 0.0211 µM
[27] = RPMI 5 mM glucose + 10% dialyzed FBS, 0.0632 µM
[28] = RPMI 5 mM glucose + 10% dialyzed FBS, 0.19 µM
[29] = RPMI 5 mM glucose + 10% dialyzed FBS, 0.569 µM
[30] = RPMI 5 mM glucose + 10% dialyzed FBS, 1.71 µM
[31] = RPMI 5 mM glucose + 10% dialyzed FBS, 5.12 µM
[32] = RPMI 5 mM glucose + 10% dialyzed FBS, 15.4 µM
[33] = RPMI 5 mM glucose + 10% dialyzed FBS, 46.1 µM

SMILES | cell viability [1] [%] | cell viability [2] [%] | cell viability [3] [%] | cell viability [4] [%] | cell viability [5] [%] | cell viability [6] [%] | cell viability [7] [%] | cell viability [8] [%] | cell viability [9] [%] | cell viability [10] [%] | cell viability [11] [%] | cell viability [12] [%] | cell viability [13] [%] | cell viability [14] [%] | cell viability [15] [%] | cell viability [16] [%] | cell viability [17] [%] | cell viability [18] [%] | cell viability [19] [%] | cell viability [20] [%] | cell viability [21] [%] | cell viability [22] [%] | cell viability [23] [%] | cell viability [24] [%] | cell viability [25] [%] | cell viability [26] [%] | cell viability [27] [%] | cell viability [28] [%] | cell viability [29] [%] | cell viability [30] [%] | cell viability [31] [%] | cell viability [32] [%] | cell viability [33] [%]
NC(=O)c1nnn(Cc2cc(Cl)c(C(=O)c3ccc(Cl)cc3)c(Cl)c2)c1N | 111 | 134 | 124 | 127 | 120 | 137 | 124 | 135 | 111 | 120 | 78.7 | 121 | 123 | 129 | 124 | 122 | 123 | 123 | 105 | 110 | 114 | 103 | – | – | – | – | – | – | – | – | – | – | –
CC1(C)CCC(C)(C)c2cc(NC(=O)c3ccc(C(=O)O)cc3)ccc21 | 91.4 | 91 | 98.5 | 111 | 101 | 100 | 98.1 | 109 | 79.9 | 92.9 | 60.7 | 85.7 | 90.6 | 89.8 | 97.5 | 95.4 | 97.3 | 99.8 | 101 | 98.5 | 94.4 | 76.1 | 99.8 | 91.9 | 91.3 | 89.8 | 97.7 | 90.2 | 95.3 | 93 | 88.2 | 84.5 | 75.9
CCc1nc(N)nc(N)c1-c1ccc(Cl)cc1 | 78.8 | 118 | 93.3 | 92.8 | 105 | 108 | 96.1 | 47.7 | 48 | 44.6 | 38.7 | 81.1 | 99.5 | 84.8 | 83.7 | 86.1 | 86.4 | 90.6 | 90.5 | 89.9 | 89.1 | 89.6 | 84 | 94.3 | 90.3 | 100 | 106 | 104 | 96.8 | 104 | 90.2 | 56.3 | 35.3
CN(C)CCc1c[nH]c2ccc(Cn3cncn3)cc12 | 93.7 | 103 | 105 | 102 | 115 | 77.6 | 86.2 | 18.3 | 9.15 | 6.34 | 3.57 | 84.7 | 91.7 | 89.8 | 87.1 | 91.5 | 65.3 | 82.4 | 17.4 | 7.32 | 5.18 | 3.92 | 94.9 | 93.5 | 98.1 | 106 | 92.8 | 78.8 | 86.1 | 32 | 10.7 | 5.4 | 4.44
C[C@@H](Cc1cc2c(c(C(N)=O)c1)N(CCCO)CC2)NCCOc1ccccc1OCC(F)(F)F | 94.5 | 99.7 | 101 | 120 | 107 | 123 | 122 | 135 | 111 | 114 | 113 | 94.5 | 105 | 107 | 106 | 112 | 109 | 110 | 105 | 116 | 110 | 106 | 89.4 | 106 | 106 | 104 | 126 | 115 | 109 | 121 | 116 | 105 | 104
CCC(=O)N1CCN(CC1)C2=C(C=C(C=C2)N3C(=O)\C=C/C4=C3C5=CC(=CC=C5N=C4)C6=CN=C7C=CC=CC7=C6)C(F)(F)F | 93.9 | 94.4 | 89.2 | 90.8 | 83.2 | 75 | 61.4 | 71.8 | 72.7 | 69.2 | 67 | 98 | 96.7 | 96.9 | 104 | 90.4 | 79 | 72.7 | 68.2 | 62.3 | 64 | 63.7 | 77.6 | 100 | 86.3 | 86.5 | 82.5 | 77.6 | 68.3 | 60.8 | 57.6 | 57.4 | 54.7
Clc1ccc(C(c2ccccc2Cl)C(Cl)Cl)cc1 (centres undefined) | 137 | 124 | 123 | 122 | 120 | 107 | 116 | 122 | 114 | 99.8 | 101 | 105 | 115 | 126 | 118 | 137 | 134 | 120 | 119 | 110 | 98.2 | 93.2 | 106 | 115 | 129 | 106 | 111 | 109 | 97.1 | 120 | 101 | 95 | 99.4
CN(CC(=O)N(Cc1ccc(C2CCCCC2)cc1)c1ccc(C(=O)O)c(O)c1)[S+](=O)([O-])c1c(F)c(F)c(F)c(F)c1F | 101 | 109 | 104 | 101 | 117 | 107 | 101 | 102 | 95.1 | 83.5 | 31.7 | 92.8 | 82.5 | 88.4 | 84.3 | 88.5 | 88.6 | 86.9 | 87.7 | 83.9 | 83.4 | 63 | 74.1 | 95.2 | 103 | 94.1 | 93.8 | 110 | 95.4 | 95.3 | 95.6 | 86.6 | 51.8
NC(=O)N1CCC(CC(=O)N2CCC([C@H]3c4ncc(Br)cc4CCc4cc(Cl)cc(Br)c43)CC2)CC1 | 113 | 109 | 126 | 118 | 117 | 110 | 114 | 122 | 90 | 90 | 53.4 | 107 | 112 | 109 | 98.5 | 104 | 103 | 99.2 | 101 | 86.2 | 80.2 | 54.1 | 109 | 113 | 123 | 112 | 118 | 112 | 94 | 104 | 95.7 | 87.6 | 69.4
COC(=O)CCC1=C(C)C2=CC3=NC(=CC4=C(C)C(=C([NH]4)C=C\5N=C(C=C1[NH]2)\C(=C5C)CCC(O)=O)C=C)\C6=C\C=C(/[C@@H](C(=O)OC)[C@@]36C)C(=O)OC | 95.4 | 94.3 | 91.5 | 91.9 | 92.6 | 97 | 103 | 80.3 | 78.6 | 38.9 | 14.1 | 86.6 | 89.3 | 91.9 | 97.5 | 116 | 109 | 101 | 102 | 101 | 55.2 | 14.5 | 85.4 | 99 | 87 | 98.4 | 88 | 90.8 | 93.7 | 86.6 | 94.9 | 45.7 | 18.4
CC[C@H](CO)Nc1nc(NCc2ccccc2)c2ncn(C(C)C)c2n1 | 98.6 | 95.1 | 98.5 | 99.4 | 89.8 | 88 | 89.4 | 82.9 | 85.7 | 96.4 | 54.2 | 82.5 | 93.9 | 93.9 | 83.7 | 84.3 | 88.3 | 87.4 | 79.5 | 84.2 | 77 | 76.6 | 96.7 | 96.3 | 85.2 | 90.9 | 94.1 | 86.2 | 95.2 | 90.1 | 94.2 | 77.3 | 70.3
Cn1cnc(N)c2ncnc1-2 | 111 | 130 | 108 | 117 | 139 | 92.4 | 139 | 80.3 | 63.5 | 11.5 | 6.59 | 99.7 | 113 | 117 | 119 | 131 | 111 | 118 | 117 | 94.7 | 18.5 | 9.02 | 102 | 124 | 118 | 130 | 135 | 113 | 120 | 118 | 79.7 | 19.3 | 11.9
O=c1oc2cc(O)ccc2s1 | 109 | 128 | 120 | 107 | 114 | 110 | 110 | 95.8 | 101 | 110 | 90.3 | 109 | 117 | 130 | 108 | 105 | 116 | 108 | 108 | 115 | 102 | 98.3 | 98.1 | 116 | 117 | 119 | 103 | 104 | 112 | 105 | 101 | 107 | 109
CCC(=O)O[C@@]1(CC[C@H]2[C@@H]3CCC/4=C/C(=O)CC[C@]4(C)[C@H]3CC[C@]12C)C(=O)CO | 75.8 | 115 | 103 | 111 | 119 | 128 | 106 | 140 | 108 | 85.4 | 78.7 | 109 | 112 | 106 | 111 | 107 | 118 | 115 | 104 | 104 | 108 | 103 | 107 | 103 | 102 | 119 | 124 | 122 | 124 | 129 | 128 | 86.1 | 83.3
O=C(CCCN1CCC(O)(c2ccc(Cl)cc2)CC1)c1ccc(F)cc1 | 115 | 119 | 108 | 111 | 114 | 133 | 135 | 129 | 126 | 110 | 91.7 | 95.3 | 106 | 101 | 109 | 128 | 117 | 110 | 119 | 102 | 110 | 82.1 | 115 | 121 | 114 | 110 | 125 | 115 | 120 | 116 | 122 | 117 | 82.5
